Data published in patent publication US20220233661A1, “METHOD OF DETERMINING ELIGIBILITY OF CANCER PATIENT FOR PEPTIDE VACCINE THERAPY” (priority 2019, published 2022).

Experiments:
cancer patients = test: Test Example 4: correlation between vaccination with individual peptides (or peptide sets) and OS, Cox proportional hazards regression; type: in vivo, human; conditions: for HR: Cox proportional hazards regression, OS; for Correlation between immune responses and OS: Negative (mOS) / Correlation between immune responses and OS: Positive (mOS): Table 20, <64% neutrophil and ≥26% lymphocyte; for Correlation between immune responses and OS: Negative (mOS): vaccinated patients with negative IgG response; for Correlation between immune responses and OS: Positive (mOS): vaccinated patients with positive IgG response
Method in brief: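 Univariate and multivariate Cox proportional hazards regression of each of 31 vaccine peptides against OS (enrollment to death or last contact), giving HR with 95% CI; also run separately in 2,085 advanced (stage IV+recurrence) and 503 stage I-III patients. Two-sided p<0.05 considered significant.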

[1] = tested on: anti-peptide IgG in plasma; test: Test Example 4: peptide-specific IgG titer pre and post vaccination, bead-based multiplexed Luminex assay; type: in vivo, human; conditions: for Pre-vaccination IgG Negative (number of patients) / Pre-vaccination IgG Positive (number of patients): cut off 10 FIU; for Post vaccination IgG: number of (positive) patients among vaccinated: positive IgG response; for Pre-vaccination IgG Negative patients: number of 2,588 patients below 10 FIU; for Pre-vaccination IgG Positive patients: number of 2,588 patients with ≥10 FIU; for Post vaccination IgG: (positive) patients: number of vaccinated patients with positive IgG response; for Correlation between immune responses and OS: Negative (mOS): patients with negative post-vaccination IgG response to the peptide; for Correlation between immune responses and OS: Positive (mOS): patients with positive post-vaccination IgG response to the peptide
Method in brief: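 Plasma taken before vaccination and at the end of the first and second cycles; incubated with peptide-coupled beads 2 hours at 25° C., then biotinylated anti-human IgG (gamma chain-specific) and streptavidin-PE. Bead FIU read by Luminex; positivity cutoff 10 FIU in 100-fold diluted samples.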

[2] = Table 18, all 2,588 cases, vaccinated vs non-vaccinated
[3] = Table 18, all 2,588 cases, median OS of patients under PPV containing the peptide
[4] = Table 18, all 2,588 cases, median OS of patients under PPV not containing the peptide
[5] = Table 19, 2,085 advanced cancer patients (stage IV+recurrence)
[6] = Table 19, 2,085 advanced cancer patients (stage IV+recurrence), PPV containing the peptide
[7] = Table 19, 2,085 advanced cancer patients (stage IV+recurrence), PPV not containing the peptide
[8] = Table 21, patients showing both <64% neutrophil and ≥26% lymphocyte
[9] = Table 21, patients showing both <64% neutrophil and ≥26% lymphocyte, PPV containing the peptide
[10] = Table 21, patients showing both <64% neutrophil and ≥26% lymphocyte, PPV not containing the peptide
[11] = Table 20, patients showing both <64% neutrophil and ≥26% lymphocyte
[12] = patients showing detectable levels
[13] = patients showing positive responses
[14] = 2,085 advanced cancer patients (stage IV+recurrence)

Row | Sequence | HR (cancer patients; [2]) | Vaccinate cases (mOS) (cancer patients; [3]) | Non-vaccinate cases (mOS) (cancer patients; [4]) | HR (cancer patients; [5]) | Vaccinate cases (mOS) (cancer patients; [6]) | Non-vaccinate cases (mOS) (cancer patients; [7]) | Correlation between immune responses and OS: Negative (mOS) (cancer patients) | Correlation between immune responses and OS: Positive (mOS) (cancer patients) | HR (cancer patients; [8]) | Vaccinate cases (mOS) (cancer patients; [9]) | Non-vaccinate cases (mOS) (cancer patients; [10]) | Post vaccination IgG Median (FIU) [1, 11] | Pre-vaccination IgG Median (FIU) [1, 11] | Pre-vaccination IgG Negative (number of patients) [1, 11] | Pre-vaccination IgG Positive (number of patients) [1, 11] | Post vaccination IgG: number of (positive) patients among vaccinated [1, 11] | Pre-vaccination IgG Negative patients [1] | Pre-vaccination IgG Positive patients [1] | Post vaccination IgG: (positive) patients [1] | Pre-vaccination IgG Median (FIU) [1, 12] | also measured
1 | RLAEYQAYI (listed as Homo sapiens) [SART3-309] | 0.9 | 328(12.1) M | 722(11.1) M | 0.9 | 259(11.6) M | 603(9.8) M | 10.4 months | 28.9 months | 0.9 | 154(19.0) M | 280(15.6) M | 6,009 FIU | 33 FIU | 253 | 813 | 154(99) | 667 | 1,921 | 328(158) | 35 FIU | Post vaccination IgG Median (FIU) [1, 13]: 3,070 FIU; Correlation between immune responses and OS: Negative (mOS) [1]: 10.5 months; Correlation between immune responses and OS: Positive (mOS) [1]: 21.4 months
2 | RYLTQETNKV (listed as Homo sapiens) [PTHrP-102] | 0.9 | 204(13.3) M | 1,346(11.9) M | 0.9 | 168(11.8) M | 1078(10.3) M | 13.9 months | 39 months | 0.9 | 91(21.2) M | 534(18.0) M | 5,336 FIU | 27 FIU | 710 | 356 | 91(51) | 1,702 | 886 | 204(99) | 27 FIU | Post vaccination IgG Median (FIU) [1, 13]: 1,423 FIU; Correlation between immune responses and OS: Negative (mOS) [1]: 11.4 months; Correlation between immune responses and OS: Positive (mOS) [1]: 20.0 months
3 | TFDYLRSVL (listed as Homo sapiens) [Lck-486] | 0.9 | 879(12.3) M | 671(11.3) M | 0.9 | 709(11.1) M | 537(9.6) M | 11.4 months | 25.2 months | 0.9 | 356(19.1) M | 269(17.6) M | 17,613 FIU | 40 FIU | 167 | 899 | 356(274) | 404 | 2,184 | 879(573) | 42 FIU | median OS of non-vaccinated cases (cancer patients; [14]): 9.6 months; median OS of vaccinated cases (cancer patients; [14]): 11.1 months; median OS of vaccinated cases (cancer patients; all 2,588 cases, PPV containing the peptide): 12.3 months; median OS of non-vaccinated cases (cancer patients; all 2,588 cases, PPV not containing the peptide): 11.3 months; Post vaccination IgG Median (FIU) [1, 13]: 15,147 FIU; Correlation between immune responses and OS: Negative (mOS) [1]: 7.2 months; Correlation between immune responses and OS: Positive (mOS) [1]: 19.4 months
4 | TYSVSFDSL (listed as Homo sapiens) [PSMA-624] | 1.0 | 101(11.7) M | 1,449(12.0) M | 1.1 | 78(7.9) M | 1168(10.7) M | 21.2 months | 24.4 months | 0.9 | 37(21.2) M | 588(18.0) M | 10,984 FIU | 26 FIU | 680 | 386 | 37(26) | 1,638 | 950 | 101(50) | 24 FIU | Post vaccination IgG Median (FIU) [1, 13]: 7,772 FIU; Correlation between immune responses and OS: Negative (mOS) [1]: 5.5 months; Correlation between immune responses and OS: Positive (mOS) [1]: 21.7 months
